This is an account of results in a melting point compilation (Tetko et al.; mined from patent text by program, amines drawn as free bases though some values may be those of a salt).

In general, melting point refers to the temperature, or range, at which the solid turns liquid. As for `O=S(=O)(Nc1ccc2c(OCc3ccc(-c4ccc(F)cc4)cc3)cccc2c1)C(F)(F)F`, the melting point fell in the range of 139 to 140 °C.
The result for `CCC(=O)NCCc1ccc(OCc2ccccc2)c(OCc2ccccc2)c1CC` reads 159 to 160 °C; that for `COc1ccc(CCNC(=O)C(N)=O)cc1OC`, 171 to 172 °C; that for `C[Si](C)(C)C#Cc1ccnc(Cl)n1`, 51 to 54 °C.
The result for `Cc1cccc(Cl)c1N1C(=O)CON(C)C1=S` reads 176 to 178 °C.
The result for `Cn1c(C(F)(F)F)cc(=O)n(-c2c(F)cc(Cl)c3nc(C(Br)Br)oc23)c1=O` reads 144 to 146 °C.
Regarding `CNC(=O)c1cnn(C)c1C(=O)Nc1ccn2nc(-c3ccccc3)nc2c1`, the melting point was more than 250 °C.
`O=C1c2ccc([N+](=O)[O-])cc2C(=O)N1c1ccc(C2(c3ccc(N4C(=O)c5ccc([N+](=O)[O-])cc5C4=O)cc3)c3ccccc3-c3ccccc32)cc1` had a melting point of 360 to 363 °C.
In turn, `O=C(O)c1cccc(-c2nc3cc(N4CCCC4=O)ccc3o2)c1` registered a melting point of 190 to 192 °C.
Molecule `CSc1nc(O)c2c(n1)CCCS2` returned a melting point of 248 °C.
In turn, `COc1ccc(S(=O)(=O)C2(CCCC#Cc3ccc(Cl)cc3)SC(=O)NC2=O)cc1` (stereo not given) gave a melting point of 172 to 174 °C.
In the case of `Clc1cccnc1-c1ccc2[nH]nc(Nc3ncc(CN4CCOCC4)s3)c2c1`, the melting point was found to be 217 °C.
`Cc1nc2cc(Cl)c(Cl)cc2n1C1CC(CO)C(O)C1O` (stereo not given) came in with a melting point of 198 to 200 °C.
The result for `COCCc1nc2c(N)nc3ccccc3c2n1CCCCCCCCNC(=O)Nc1ccccc1` reads 136 to 142 °C; that for `Cc1cc(-c2ccc3ncc(N)nc3c2)cc(C)c1O`, 256 °C.
The value for `CC(=O)OCCn1nc(-c2cc(C(C)(C)C)c(O)c(C(C)(C)C)c2)c2ccc(C(C)C)nc21` was 121 to 122 °C; that for `O=C(O)[C@H](Cc1cccc(OC(F)(F)C(F)F)c1)[C@@H](O)c1ccc(Oc2ccccc2)cc1` (racemic) was 109 to 110 °C.
Turning to `C[C@]12CCC(=O)N[C@@H]1CCc1cc(Sc3ccccn3)ccc12`, the melting point was 223 to 225 °C.
`COc1cc2c(c(OC)c1)C1CCC3(C)C(=O)CCC3C1CC2` (stereo not given) had a melting point of 132 to 133 °C.
The molecule `CC(C)n1nc(-c2sc(C(=O)N3CCCC3)nc2-c2ccccc2)ccc1=O` displayed a melting point of 169 to 170 °C.
The result for `COC(=O)c1nc(-c2ccc(Cl)c(OC)c2F)nc(O)c1Br` reads 192 to 195 °C; that for `COC(=O)c1cc(F)c(OS(=O)(=O)c2c(C)cc(C)cc2C)nc1Nc1ccc(F)cc1F`, 153 to 155 °C; that for `Cc1ccc(S(=O)(=O)N=[N+]=[N-])cc1`, 79 to 82.5 °C.
The result for `COc1ccc(Nc2ccc(C)cc2)c(C(=O)O)c1` reads 160 to 161 °C; that for `c1ccc(-c2noc(-c3cc4c(cn3)[nH]c3ccccc34)n2)cc1`, 279 to 283 °C.
As to `CCOC(=O)c1ccc2nnc(-c3ncc([N+](=O)[O-])n3C)n2n1`, the melting point was 180 to 182 °C.
The molecule `CCCN(C)C(=O)Nc1c(C(=O)c2ccccc2)[nH]c2cc(Cl)ccc12` gave a melting point of 168 to 171 °C.
The molecule `CCN1C(=O)CCCc2cc(Nc3ncc(Cl)c(Nc4cc(Cl)ccc4OC)n3)c(OC)cc21` had a melting point of 194 to 196 °C.
On to `S=c1n(CNCc2ccc(Cl)cc2)nc(-c2ccncc2)n1-c1ccccc1`, for which the melting point lay in the range of 222 to 223 °C.
The value for `CNC(=O)ON=C1N=C(C)C(C)(CC(C)C)S1` (stereo not given) was 99 to 101 °C; that for `COC(=O)c1cc(C(C)=O)c(OC(C)=O)cc1NC(=O)C(F)(F)F` was 130 to 131 °C; that for `CSCC(=O)[C@H](Cc1ccccc1)NC(=O)[C@H](CC(C)C)NC(C)=O` was 118 to 120 °C.
The molecule `NS(=O)(=O)c1ccc2c(c1)CCO2` came in with a melting point of 163 to 164 °C.
Turning to `O=S(=O)(NC1CCN(S(=O)(=O)c2cccs2)C1)c1ccc(Cl)cc1` (stereo not given), the melting point was 115 to 116 °C.
Take `COc1cc(I)c(CC(C)N2CCCC2)cc1OC` (stereo not given): the melting point fell in the range of 87 to 88 °C.
In turn, `CCOC(=O)C(=C1CCCN1C)c1ccc(OC)cc1` yielded a melting point of 81 to 82 °C.
Molecule `CNC(=O)[C@@H]1CCCN1S(=O)(=O)c1ccc(Cl)c(COc2cccc3c(-n4ccnc4)cc(C)nc23)c1Cl` registered a melting point of 90 °C.
`CCOC(=O)c1cnn(C)c1NCc1ccc(-c2ccccc2C#N)cc1` returned a melting point of 107 to 108 °C.
For the molecule `O=C(NCC1CCCCN1)c1cc(O)ccc1OCC(F)(F)F` (stereo not given), the melting point is 134 to 137 °C.
The value for `COc1ccc(-c2nc(-c3ccccc3)n(CCCCCCCC(=O)O)c2-c2ccc(OC)cc2)cc1` was 149 to 150 °C.
`CCOC(=O)CC(NS(=O)(=O)c1cccc(-c2cccc(NC(=NC#N)NCc3ccccn3)c2)c1)c1ccccc1` (stereo not given) displayed a melting point of 82 °C.
For `CN1CCN(C)CC(OC(=O)c2n[nH]c3ccccc23)C1`, the melting point lay within 184 to 185 °C.
In turn, `CC[C@H](C)[C@@H](CO)NS(=O)(=O)c1ccc(I)cc1` showed a melting point of 118 to 120 °C.
On to `CC(C)OC(=O)c1cc(-c2nn(C)c(C(F)(F)F)c2Cl)c(F)cc1Cl`, for which the melting point was 69 °C.
For `CC(C)Oc1ccc(CCCCOc2cc(CCC(=O)O)n(C(C)C)n2)c(Oc2ncc(C(F)(F)F)cc2Cl)c1`, the melting point is 99.5 to 100 °C.
Regarding `Nc1nc2ccc(S(=O)(=O)n3c(CCC(=O)O)cc4cc(C(F)(F)F)ccc43)cc2s1`, the melting point is more than 250 °C.
`Cc1ccc(S(=O)(=O)c2ccccc2S(=O)(=O)N=CN(C)C)cc1`: the melting point turned out to be 178 °C.
In the case of `C1=C(c2coc3ccccc23)N2CCCN=C2S1`, the melting point lay within 128 to 130 °C.
The result for `O=Cc1cn(Cc2cc(OCc3ccccc3)cc(OCc3ccccc3)c2)cc1-c1ccccc1` reads 117 to 118 °C.
The value for `O=C(CSc1ncc(-c2ccccc2)cn1)NC1CCN(Cc2ccc(Cl)c(Cl)c2)CC1` was 157 °C; that for `C=Cc1ncc2c(c1O)COC2C` (stereo not given) was 237 to 238 °C; that for `O=C1c2ccccc2C(=O)N1OCc1cnn(C(c2ccccc2)(c2ccccc2)c2ccccc2)c1` was 186 to 188 °C.
The value for `CCCCC(=O)Nc1ccc(C(=O)Nc2ccc3cc(CN4CCCC4)cnc3c2C)cc1` was 206 to 207 °C; that for `CCCC(C(=O)O)n1c(=O)c(=O)[nH]c2ccccc21` (stereo not given) was 272 to 275 °C.
For `N#Cc1ccc(N2CCC(=O)C2)c2ccccc12`, the melting point was 153 to 154 °C.
Turning to `CC(C)(C)OC(=O)N[C@H]1COc2ccccc2N(CC(=O)OCc2ccccc2)C1=O`, the melting point lay in the range of 122 to 124 °C.
The value for `Cc1ccc(-c2nc(N)nc(N)c2[N+](=O)[O-])o1` was 196 to 197 °C; that for `CCCCCCCN(Cc1ccc(C(C)(C)C)cc1)C(Nc1ccc(Cl)cc1)=C1C(=O)COC1=O` was 101 to 104 °C.
As for `CN1CCc2c(c3ccccc3n2CCC(=O)NN)C1`, the melting point lay within 123 to 124 °C.
Molecule `CCOC(=O)c1ccc(NC(=O)C=C(c2ccc(Cl)cc2)c2ccc(Cl)cc2)cc1` came in with a melting point of 207 to 209 °C.
The value for `Cc1ccc(C(=O)NC(NC(=NC#N)Nc2cncnc2)C(Cl)(Cl)Cl)cc1` (stereo not given) was 186 to 188 °C; that for `CCCc1cc(Cn2c(=O)ccc3c(CC)nc(CC)cc32)ccc1O[Si](C)(C)C(C)(C)C` was 103 to 105 °C; that for `N#Cc1c(N2CCCCC2)cc(-c2ccc3ccc4cccc5ccc2c3c45)c2c1C(=O)c1ccccc1-2` was 180 to 182 °C.
The result for `O[C@@H](CNCCOc1ccc2oc(-c3noc(C(F)(F)F)n3)cc2c1)COc1ccccc1Cl` reads 112 to 115 °C.
`Cc1cc(C(C)(C)C)c(O[Si](C)(C)N=C=S)c(C(C)(C)C)c1` yielded a melting point of 83 to 84 °C.
The value for `CCCCNc1cc(-c2ccccc2)nc2nn(C)cc12` was 160 to 161 °C.
The value for `CCN1CCN(C(=O)N2CCC(N3N=C(c4ccc(OC)c(OC)c4)[C@H]4CC=CC[C@H]4C3=O)CC2)C(=O)C1=O` was 226 to 228 °C; that for `CC(=O)N1CCc2ccc(Cl)c(S(=O)(=O)Cl)c2C1` was 121 to 125 °C; that for `CCOC(=O)Nc1c(F)cc(Cl)c2c1OC(C)(C)C2` was 114 to 115 °C.
For `CON1CCC2(CC1)C(=O)C(Cl)(c1cc(C)c(C)cc1Cl)C(=O)N2C` (stereo not given), the melting point lay in the range of 93 to 94 °C.
In the case of `CSCOc1cc(Cl)ccc1C=O`, the melting point fell in the range of 67 to 68 °C.
`O=C(O)c1cc2c(F)ccc(Cl)c2s1` showed a melting point of 248 to 249 °C.
In turn, `O=C(O)c1[nH]c(-c2ccoc2)cc1-c1ccc(O)cc1` gave a melting point of 154 to 156 °C.
In turn, `COc1c(-c2ccccc2)c(C(=O)c2ccc(O)c(Br)c2)n2ccccc12` had a melting point of 205 °C.
The result for `COc1ccc(Cl)cc1NC(=S)C1CCCCn2c1nc(-c1ccncn1)cc2=O` (racemic) reads 220 to 223 °C; that for `CC(CN1C(=O)C2(COc3cc4c(cc32)CCO4)c2ccccc21)OCc1ccc(F)cc1` (stereo not given), 55 to 60 °C.
`CC(NC(=O)OC(C#N)c1cccc(Oc2ccccc2)c1)c1cccc2ccccc12` (stereo not given) came in with a melting point of 122 °C.
Turning to `O=C(C=Cc1ccc2c(c1)OCO2)c1cccc(OCCCCCBr)c1`, the melting point fell in the range of 87 to 88 °C.
For the molecule `O=C(NCCCOc1cccc(CN2CCCCC2)c1)Nc1ccc2c(c1)OCO2`, the melting point is 128 to 130 °C.
`COc1cc(N)c2ncccc2c1OCc1ccc(Cl)cc1` returned a melting point of 122 to 123 °C.
`CCC(=O)C(=CN(C)C)Oc1cc(Cl)cc(Cl)c1` came in with a melting point of 96 to 97 °C.
With `Cc1ccc(N(C)S(=O)(=O)c2cccs2)c2[nH]c(C3=NCC(CCO)S3)cc12` (stereo not given), the melting point lay in the range of 168 to 169 °C.
In the case of `O=c1c2c(Cc3cccc(OC(F)(F)F)c3)n[nH]c2c2cccnc2n1-c1cccc(OC(F)(F)F)c1`, the melting point was 174 to 177 °C.
`O=C1NCC(Cc2ccccc2OCc2ccccc2)O1` (stereo not given) came in with a melting point of 90 to 91 °C.
`COCCS(=O)(=O)c1ccccc1S(N)(=O)=O` showed a melting point of 120 to 123 °C.
